According to patent US3959272A, “Aminoalkyl esters of 2-anilino-nicotinic acids” (Societe Anonyme dite: Hexachime, priority 1972, dated 1976):

Assays:
[1] = Anti-inflammatory activity: oedema provoked by carragenin in the rat; type: in vivo; details: po, read-out: percentage inhibition of oedema
Description: The method used was as follows.
The anti-inflammatory activity was measured on oedema provoked by carragenin in the rat. Groups of six male rats each weighing 120 to 130 g received the compound under test orally in suspension in "tween 80", half the dose being given 2 hours before and the other half 1/2 hour before the subcutaneous plantar injection of 0.05 ml of a 1 % carragenin solution. The volume of the injected paw was measured by plethysmography at regular intervals. Table 1 below gives the percentage inhibition of the oedema with reference to untreated controls.

[2] = Analgesic activity: Randall and Selitto's test (beer yeast paw, pain threshold); type: in vivo, rat
Description: This activity was measured by Siegmund's test in mice and Randall and Selitto's test in the rat. Groups of ten male rats each weight 120 to 140 g received by subcutaneous plantar injection 0.05 ml of a 5% aqueous suspension of beer yeast. 2 Hours after this treatment they received the compound under test orally and 1 hour after administration of this compound the paw which had been injected and the contralateral paw were subjected to increasing pressure. The appearance of the pain threshold was noted.

[3] = Laparotomy test; type: in vivo, rat; details: as the hydrochloride; for ED50: Rattus norvegicus, ip, intraperitoneal
Description: Rats weighing 110 to 130 g each received the product of Example 1 (as the hydrochloride) by intraperitoneal injection. 10 or 30 Minutes after the treatment, the animals are examined to see:
1. If they allow themselves to remain lying on their backs;
3. if they tolerate an incision into the skin; and
4. if they tolerate an incision into the muscle. If an animal submits without reaction it is counted as zero, and if it reacts it is counted as one. The total score is calculated for each dosage. The following table gives the percentage protection and the number of sleeping rats.

[4] = Stimulation of dental pulp in the rabbit; type: in vivo
Description: 24 Hours before the test, each incisor of the rabbit is drilled 1 mm below the gum to a depth of about 1 mm. The next day, the animals are placed in restraining boxes and stimulating electrodes are placed in position. The threshold of reaction to the electrical stimulation (at 30 Hz; 10 ms; for 1 s) is measured by the munching reaction of the rabbits. The product of Example 1 was administered intravenously and its effect on the pain threshold was measured at regular intervals after treatment.

[5] = Hypnotic activity in rats or mice (loss of righting reflex); type: in vivo; details: for % of sleeping animals: mice
Description: The compounds under test were administered to rats or mice intraperitoneally. The loss of the righting reflex was noted and the duration of sleep measured objectively with reference to the loss of the righting reflex. The compounds under test were also administered by slow perfusion to dogs. The moment when the dog fell asleep and the duration of sleep was noted.

[6] = Antagonism of convulsions produced by cardiazole; type: in vivo; details: Mus musculus, ip, read-out: Percentage inhibition of tonic convulsions
Description: Groups of 6 mice received the compound under test 30 minutes before introperitoneal injection of 160 mg/kg of cardiazole. The action of the compound under test on the tonic convulsion phase was observed.

[7] = Potentiation of stereotypes by amphetamine; type: in vivo, rat; details: 5 mg/kg dexamphetamine sulphate
Description: The compound under test was administered to groups of 5 rats intraperitoneally. Thirty minutes afterwards, 5 mg/kg of dexamphetamine sulphate was injected intraperitoneally. The duration of the phenomenon is counted at regular intervals from 0 to 4 and the counts are added up.

[8] = Overall result of the pharmacological tests; type: in vivo; details: according to the results obtained
Description: The new compounds show these properties in the tests usually used to determine them.

Cc1cccc(Nc2ncccc2C(=O)OCCN2CCOCC2)c1C [Example 1, β-Morpholino ethyl nixylate]
inhibition in vivo at 16 mg/kg ([1]; 16 mg/kg orally): 16%
inhibition in vivo at 32 mg/kg ([1]; 32 mg/kg orally): 20%
inhibition in vivo at 64 mg/kg ([1]; 64 mg/kg orally): 34%
inhibition in vivo at 128 mg/kg ([1]; 128 mg/kg orally): 45%
inhibition in vivo at 256 mg/kg ([1]; 256 mg/kg orally): 61%
percentage increase of pain threshold ([2]; with yeast, 8 mg/kg orally): 15%
percentage increase of pain threshold ([2]; with yeast, 16 mg/kg orally): 68%
percentage increase of pain threshold ([2]; with yeast, 32 mg/kg orally): 90%
percentage increase of pain threshold ([2]; with yeast, 64 mg/kg orally): 83%
percentage increase of pain threshold ([2]; with yeast, 128 mg/kg orally): 120%
percentage increase of pain threshold ([2]; with yeast, 256 mg/kg orally): 161%
percentage increase of pain threshold ([2]; without yeast, 8 mg/kg orally): 37%
percentage increase of pain threshold ([2]; without yeast, 16 mg/kg orally): 29%
percentage increase of pain threshold ([2]; without yeast, 32 mg/kg orally): 51%
percentage increase of pain threshold ([2]; without yeast, 64 mg/kg orally): 72%
percentage increase of pain threshold ([2]; without yeast, 128 mg/kg orally): 101%
percentage increase of pain threshold ([2]; without yeast, 256 mg/kg orally): 126%
ED50 ([3]; 10 min, 10 min after treatment): 44 mg/kg
ED50 ([3]; 0.5 h, 30 min after treatment): 100 mg/kg
Percentage protection ([3]; 16 mg/kg intraperitoneally, 10 min after treatment, 12 rats): 6%
Number of sleeping rats ([3]; 16 mg/kg intraperitoneally, 10 min after treatment, of 12 rats): 0
Percentage protection ([3]; 16 mg/kg intraperitoneally, 30 min after treatment, 6 rats): 0%
Number of sleeping rats ([3]; 16 mg/kg intraperitoneally, 30 min after treatment, of 6 rats): 0
Percentage protection ([3]; 32 mg/kg intraperitoneally, 10 min after treatment, 12 rats): 34%
Number of sleeping rats ([3]; 32 mg/kg intraperitoneally, 10 min after treatment, of 12 rats): 0
Percentage protection ([3]; 32 mg/kg intraperitoneally, 30 min after treatment, 6 rats): 0%
Number of sleeping rats ([3]; 32 mg/kg intraperitoneally, 30 min after treatment, of 6 rats): 0
Percentage protection ([3]; 64 mg/kg intraperitoneally, 10 min after treatment, 24 rats): 62%
Number of sleeping rats ([3]; 64 mg/kg intraperitoneally, 10 min after treatment, of 24 rats): 0
Percentage protection ([3]; 64 mg/kg intraperitoneally, 30 min after treatment, 24 rats): 34%
Number of sleeping rats ([3]; 64 mg/kg intraperitoneally, 30 min after treatment, of 24 rats): 0
Percentage protection ([3]; 128 mg/kg intraperitoneally, 10 min after treatment, 12 rats): 96%
Number of sleeping rats ([3]; 128 mg/kg intraperitoneally, 10 min after treatment, of 12 rats): 0
Percentage protection ([3]; 128 mg/kg intraperitoneally, 30 min after treatment, 12 rats): 62%
Number of sleeping rats ([3]; 128 mg/kg intraperitoneally, 30 min after treatment, of 12 rats): 8
Percentage protection ([3]; 256 mg/kg intraperitoneally, 30 min after treatment, 6 rats): 92%
Number of sleeping rats ([3]; 256 mg/kg intraperitoneally, 30 min after treatment, of 6 rats): 6
Threshold, % (increase) ([4]; 2.5 mg/kg intravenously, 1h30): 59%
Threshold in volts ([4]; 2.5 mg/kg intravenously, 1h30, pre-treatment 2.26): 3.61 volts
Threshold, % (increase) ([4]; 2.5 mg/kg intravenously, 2h30): 47%
Threshold in volts ([4]; 2.5 mg/kg intravenously, 2h30, pre-treatment 2.26): 3.33 volts
Threshold, % (increase) ([4]; 2.5 mg/kg intravenously, 15 min): 38%
Threshold in volts ([4]; 2.5 mg/kg intravenously, 15 min, pre-treatment 2.26): 3.12 volts
Threshold, % (increase) ([4]; 2.5 mg/kg intravenously, 30 min): 33%
Threshold in volts ([4]; 2.5 mg/kg intravenously, 30 min, pre-treatment 2.26): 3.02 volts
Threshold, % (increase) ([4]; 2.5 mg/kg intravenously, 1 h): 41%
Threshold in volts ([4]; 2.5 mg/kg intravenously, 1 h, pre-treatment 2.26): 3.20 volts
Threshold, % (increase) ([4]; 2.5 mg/kg intravenously, 2 h): 56%
Threshold in volts ([4]; 2.5 mg/kg intravenously, 2 h, pre-treatment 2.26): 3.54 volts
Threshold, % (increase) ([4]; 5 mg/kg intravenously, 1h30): 59%
Threshold in volts ([4]; 5 mg/kg intravenously, 1h30, pre-treatment 2.54): 4.05 volts
Threshold, % (increase) ([4]; 5 mg/kg intravenously, 2h30): 15%
Threshold in volts ([4]; 5 mg/kg intravenously, 2h30, pre-treatment 2.54): 2.94 volts
Threshold, % (increase) ([4]; 5 mg/kg intravenously, 15 min): 95%
Threshold in volts ([4]; 5 mg/kg intravenously, 15 min, pre-treatment 2.54): 4.97 volts
Threshold, % (increase) ([4]; 5 mg/kg intravenously, 30 min): 88%
Threshold in volts ([4]; 5 mg/kg intravenously, 30 min, pre-treatment 2.54): 4.80 volts
Threshold, % (increase) ([4]; 5 mg/kg intravenously, 1 h): 58%
Threshold in volts ([4]; 5 mg/kg intravenously, 1 h, pre-treatment 2.54): 4.02 volts
Threshold, % (increase) ([4]; 5 mg/kg intravenously, 2 h): 30%
Threshold in volts ([4]; 5 mg/kg intravenously, 2 h, pre-treatment 2.54): 3.31 volts
Threshold, % (increase) ([4]; 10 mg/kg intravenously, 1h30): 52%
Threshold in volts ([4]; 10 mg/kg intravenously, 1h30, pre-treatment 2.65): 4.05 volts
Threshold, % (increase) ([4]; 10 mg/kg intravenously, 2h30): 24%
Threshold in volts ([4]; 10 mg/kg intravenously, 2h30, pre-treatment 2.65): 3.29 volts
Threshold, % (increase) ([4]; 10 mg/kg intravenously, 15 min): 74%
Threshold in volts ([4]; 10 mg/kg intravenously, 15 min, pre-treatment 2.65): 4.62 volts
Threshold, % (increase) ([4]; 10 mg/kg intravenously, 30 min): 118%
Threshold in volts ([4]; 10 mg/kg intravenously, 30 min, pre-treatment 2.65): 5.80 volts
Threshold, % (increase) ([4]; 10 mg/kg intravenously, 1 h): 69%
Threshold in volts ([4]; 10 mg/kg intravenously, 1 h, pre-treatment 2.65): 4.49 volts
Threshold, % (increase) ([4]; 10 mg/kg intravenously, 2 h): 40%
Threshold in volts ([4]; 10 mg/kg intravenously, 2 h, pre-treatment 2.65): 3.72 volts
% of sleeping animals ([5]; 50 mg/kg intraperitoneally): 0%
% of sleeping animals ([5]; 75 mg/kg intraperitoneally): 46%
% of sleeping animals ([5]; 100 mg/kg intraperitoneally): 57%
% of sleeping animals ([5]; 125 mg/kg intraperitoneally): 84%
% of sleeping animals ([5]; 200 mg/kg intraperitoneally): 92%
% of sleeping animals ([5]; 250 mg/kg intraperitoneally): 100%
sleep caused ([5]; only this product of those tested): caused sleep
inhibition in vivo at 8 mg/kg ([6]; 8 mg/kg intraperitoneally): 0%
inhibition in vivo at 16 mg/kg ([6]; 16 mg/kg intraperitoneally): 12%
inhibition in vivo at 32 mg/kg ([6]; 32 mg/kg intraperitoneally): 21%
inhibition in vivo at 64 mg/kg ([6]; 64 mg/kg intraperitoneally): 62%
inhibition in vivo at 128 mg/kg ([6]; 128 mg/kg intraperitoneally): 95%
Sum of the counts (stereotypes) ([7]; 8 mg/kg intraperitoneally): 14
Sum of the counts (stereotypes) ([7]; 16 mg/kg intraperitoneally): 18
Sum of the counts (stereotypes) ([7]; 32 mg/kg intraperitoneally): 21
Sum of the counts (stereotypes) ([7]; 64 mg/kg intraperitoneally): 33
Sum of the counts (stereotypes) ([7]; 128 mg/kg intraperitoneally): 43
activity relative to the other compounds [8]: the most active compound
